Patent publication US20120141589A1, “PARTICLES FOR DRUG DELIVERY AND OTHER APPLICATIONS” (BASF SE, priority 2010, published 2012)

Experiments:
[1] = Dissolution test of drug/CaCO3 hybrid particles against raw drug crystals, flow-through UV-Vis; type: physicochemical; conditions: drug in CaCO3 hybrid particles; 10 mM SDS, pH 1.5 (HCl), 37° C., sink conditions, monitored at 290 nm
Procedure: In this example, the dissolution rates of the particles were determined, and compared to compared with raw, micron-sized drug crystals.
During the dissolution experiments, for convenience, dissolution media was placed in a dissolution chamber which is typically used for pressure dialysis; no pressure was applied for the measurements described here. The vessel used in these experiments contained a built-in stir bar and the dissolution media was stirred at a rate of approximately one revolution per second. Dissolution media was drawn from the bottom of the vessel, through a 0.1 micron PTFE filter. The media vessel was connected to a flow-through UV-Vis spectrophotometer cell via tubing and the liquid was driven using a peristaltic pump. A flow rate of 8 mL per second was used. The output of the flow-through cell was connected back to the dissolution chamber, so that the flow formed a closed loop; in this manner the volume of the dissolution media was conserved.
All water used was distilled and de-ionized. […] The raw drug powder was not ground. […] All dissolution media was kept at 37° C.

[2] = no UV-vis signal detectable in pure water or acidic water with added HCl
Procedure: All water used was distilled and de-ionized. These drugs were monitored at a wavelength of 290 nm. Templates were prepared for dissolution testing by grinding pellets in a mortar and pestle into a fine powder. The raw drug powder was not ground. All tests were performed under sink conditions, where the total amount of drug added is less than one third of the saturation concentration. All dissolution media was kept at 37° C.

Row | SMILES | dissolution rate when incorporated into a hybrid structure, compared with raw, micron-sized drug crystals [1] | solubility in water [2]
1 | C[C@]12CC[C@@H]3c4ccc(O)cc4CC[C@H]3[C@@H]1CC[C@@H]2O [estradiol, 17-beta estradiol] | enhanced dissolution rates | –
2 | Clc1ccccc1C(c1ccccc1)(c1ccccc1)n1ccnc1 [chlotrimazole] | enhanced dissolution rates | poorly soluble in water
